Like-named read-outs stand apart in the source and are kept apart here.
Assays:
human B cell activation = human B cell activation in vitro; assay type: cell-based
mouse model of ITP = assay: mouse model of ITP; assay type: in vivo
[1] = test system: adult patients with persistent or chronic ITP; assay: LUNA 3 phase 3 double-blind placebo-controlled study; conditions: for Number of weeks with platelet counts 50 × 10^9/L, LSmean (SE) / Number of weeks with platelet counts between ≥30 × 10^9/L and <50 × 10^9/L and at least doubled from baseline, LSmean (SE): absence of rescue medication; for Time to platelet response, Median (95% CI): N = 133
[2] = target: B cell lymphocyte kinase (BLK) (Homo sapiens, UniProt P51451); assay: kinase enzyme inhibition, BLK; assay type: biochemical
Fc receptor signaling = assay: antibody (IgG, IgE) mediated activation of immune cells in vitro; assay type: cell-based
[3] = test system: patients with relapsed ITP; conditions: for median PVI: main treatment period
ERBB4 = ERBB4 (Homo sapiens, UniProt Q15303); assay: kinase enzyme inhibition, ERBB4; assay type: biochemical
platelet aggregation = conditions: healthy volunteers or patients with ITP; cited from earlier work
other TEC family members = assay: preclinical assay of persistence of binding, other TEC family members
[4] = target: T1, bone marrow tyrosine kinase on chromosome X (BMX) (Homo sapiens, UniProt P51813); assay: kinase enzyme inhibition, BMX; assay type: biochemical
T1 sequence (P51813 1-675): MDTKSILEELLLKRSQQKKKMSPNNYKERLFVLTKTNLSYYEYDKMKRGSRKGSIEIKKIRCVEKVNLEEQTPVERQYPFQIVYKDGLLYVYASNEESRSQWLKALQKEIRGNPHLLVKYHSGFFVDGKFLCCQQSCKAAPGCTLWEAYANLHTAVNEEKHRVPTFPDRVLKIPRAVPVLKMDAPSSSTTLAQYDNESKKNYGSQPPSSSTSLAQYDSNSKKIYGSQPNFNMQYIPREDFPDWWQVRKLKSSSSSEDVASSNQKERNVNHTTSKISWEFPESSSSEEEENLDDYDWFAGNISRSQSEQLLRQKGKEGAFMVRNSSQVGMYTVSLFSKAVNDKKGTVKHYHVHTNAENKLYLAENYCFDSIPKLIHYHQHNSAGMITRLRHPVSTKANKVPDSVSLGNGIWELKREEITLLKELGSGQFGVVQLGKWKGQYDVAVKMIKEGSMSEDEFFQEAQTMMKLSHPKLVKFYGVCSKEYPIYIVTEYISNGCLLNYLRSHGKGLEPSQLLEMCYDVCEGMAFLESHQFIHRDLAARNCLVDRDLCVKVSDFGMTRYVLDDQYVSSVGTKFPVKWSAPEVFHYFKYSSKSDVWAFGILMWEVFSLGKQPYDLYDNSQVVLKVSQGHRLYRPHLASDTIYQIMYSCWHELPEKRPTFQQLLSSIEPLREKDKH

251 kinases = assay: broad kinase enzyme inhibition panel; assay type: biochemical; conditions: 1 μM; of 251 kinases
[5] = target: T2, (Homo sapiens, UniProt P42681); assay: kinase enzyme inhibition, RLK; assay type: biochemical
T2 sequence (P42681 1-527): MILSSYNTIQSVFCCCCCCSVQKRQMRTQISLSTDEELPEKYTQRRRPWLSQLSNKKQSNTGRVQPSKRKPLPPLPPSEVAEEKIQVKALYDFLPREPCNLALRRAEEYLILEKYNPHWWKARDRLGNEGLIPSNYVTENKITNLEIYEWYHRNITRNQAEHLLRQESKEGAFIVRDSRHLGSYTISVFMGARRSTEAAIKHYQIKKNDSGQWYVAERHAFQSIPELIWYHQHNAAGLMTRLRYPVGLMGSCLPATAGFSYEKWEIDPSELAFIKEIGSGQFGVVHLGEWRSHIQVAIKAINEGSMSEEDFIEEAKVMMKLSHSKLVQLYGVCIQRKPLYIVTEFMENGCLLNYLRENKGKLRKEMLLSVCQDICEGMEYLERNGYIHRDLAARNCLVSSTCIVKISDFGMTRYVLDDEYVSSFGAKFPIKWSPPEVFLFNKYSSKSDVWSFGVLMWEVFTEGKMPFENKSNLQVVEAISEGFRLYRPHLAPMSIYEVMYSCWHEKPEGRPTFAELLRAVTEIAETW

[6] = humans, oral administration; cited from earlier work
[7] = target: T3, tyrosine protein kinase TEC (Homo sapiens, UniProt P42680); assay: kinase enzyme inhibition, TEC; assay type: biochemical
T3 sequence (P42680 1-631): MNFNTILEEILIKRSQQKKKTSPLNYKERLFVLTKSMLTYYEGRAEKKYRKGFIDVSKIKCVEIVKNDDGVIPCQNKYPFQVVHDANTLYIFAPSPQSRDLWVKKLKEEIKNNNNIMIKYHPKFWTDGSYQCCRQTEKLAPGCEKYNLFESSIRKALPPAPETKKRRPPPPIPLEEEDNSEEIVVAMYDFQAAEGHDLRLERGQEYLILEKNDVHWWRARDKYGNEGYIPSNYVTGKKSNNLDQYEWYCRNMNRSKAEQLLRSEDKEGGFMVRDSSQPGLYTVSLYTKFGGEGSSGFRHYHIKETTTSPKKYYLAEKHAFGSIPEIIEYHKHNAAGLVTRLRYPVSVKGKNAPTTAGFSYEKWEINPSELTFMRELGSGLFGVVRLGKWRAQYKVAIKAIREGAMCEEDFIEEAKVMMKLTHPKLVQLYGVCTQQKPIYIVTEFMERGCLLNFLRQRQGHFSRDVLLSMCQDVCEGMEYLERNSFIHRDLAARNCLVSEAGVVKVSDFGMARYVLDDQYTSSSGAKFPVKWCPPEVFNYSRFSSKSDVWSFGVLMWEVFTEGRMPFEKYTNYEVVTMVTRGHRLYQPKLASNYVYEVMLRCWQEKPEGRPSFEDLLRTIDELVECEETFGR

BTK enzyme = BTK enzyme (Homo sapiens, UniProt Q06187); conditions: healthy volunteers, doses providing 100% BTK occupancy; cited from earlier work
ITP patients = conditions: cited from earlier work
adults with ITP = assay: response to prior ITP medication of adults enrolled in LUNA 3; assay type: in vivo, human; conditions: patients who received that medication
Text: Eligible patients had primary ITP for a duration of >3 months for adults (age ≥18 years) and >6 months for adolescent (age 12-17 years) and pediatric patients (age […]; EU only), and two average platelet counts <30×10^9/[…] within 2 weeks before treatment (Kuter et al. 2023).
Overall, 202 adults with a median age of 47 years (range, 18-80) enrolled from 154 study sites as of Sep. 28, 2023 (see Table 3); enrollment is complete for adults and ongoing for pediatrics. Most adults were female (63%), white (62%) or Asian (32%), and not Hispanic/Latino (77%). Geographic regions enrolling patients included Asia/Pacific (35% of patients), West Europe (24% of patients), South America (17% of patients), East Europe (16% of patients), and North America (8% of patients). Patients had ITP for a median duration of 7.7 years, with 75% having a duration >3 years. […] The most common prior ITP therapies were CS (96%), TPO-RA (66%), and IVIg ([…]); patients' prior responses are shown in Table 3.

[8] = 400 mg BID, 24-week blinded period
[9] = 400 mg BID, 24-week blinded period, listed as Rilzabrutinib

Sequence of BTK enzyme (Q06187 whole entry): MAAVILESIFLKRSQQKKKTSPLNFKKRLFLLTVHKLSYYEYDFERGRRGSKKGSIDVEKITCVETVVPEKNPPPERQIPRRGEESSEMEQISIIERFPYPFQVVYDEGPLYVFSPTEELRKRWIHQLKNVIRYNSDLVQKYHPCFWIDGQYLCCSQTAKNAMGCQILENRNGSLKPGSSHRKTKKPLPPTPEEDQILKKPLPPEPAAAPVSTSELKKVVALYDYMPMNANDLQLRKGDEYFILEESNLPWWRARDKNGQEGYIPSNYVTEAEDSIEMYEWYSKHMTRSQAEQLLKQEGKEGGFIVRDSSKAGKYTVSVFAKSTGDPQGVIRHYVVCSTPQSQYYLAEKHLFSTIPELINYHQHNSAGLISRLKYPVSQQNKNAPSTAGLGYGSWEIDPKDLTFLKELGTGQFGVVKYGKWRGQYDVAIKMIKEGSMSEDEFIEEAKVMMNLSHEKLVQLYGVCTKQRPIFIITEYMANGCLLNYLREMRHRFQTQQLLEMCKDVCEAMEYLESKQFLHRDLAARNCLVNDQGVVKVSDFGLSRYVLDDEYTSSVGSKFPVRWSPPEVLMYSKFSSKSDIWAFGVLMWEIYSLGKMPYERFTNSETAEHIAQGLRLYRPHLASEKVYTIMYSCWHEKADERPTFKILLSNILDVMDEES
Sequence of ERBB4 (Q15303 26-1308, species assumed): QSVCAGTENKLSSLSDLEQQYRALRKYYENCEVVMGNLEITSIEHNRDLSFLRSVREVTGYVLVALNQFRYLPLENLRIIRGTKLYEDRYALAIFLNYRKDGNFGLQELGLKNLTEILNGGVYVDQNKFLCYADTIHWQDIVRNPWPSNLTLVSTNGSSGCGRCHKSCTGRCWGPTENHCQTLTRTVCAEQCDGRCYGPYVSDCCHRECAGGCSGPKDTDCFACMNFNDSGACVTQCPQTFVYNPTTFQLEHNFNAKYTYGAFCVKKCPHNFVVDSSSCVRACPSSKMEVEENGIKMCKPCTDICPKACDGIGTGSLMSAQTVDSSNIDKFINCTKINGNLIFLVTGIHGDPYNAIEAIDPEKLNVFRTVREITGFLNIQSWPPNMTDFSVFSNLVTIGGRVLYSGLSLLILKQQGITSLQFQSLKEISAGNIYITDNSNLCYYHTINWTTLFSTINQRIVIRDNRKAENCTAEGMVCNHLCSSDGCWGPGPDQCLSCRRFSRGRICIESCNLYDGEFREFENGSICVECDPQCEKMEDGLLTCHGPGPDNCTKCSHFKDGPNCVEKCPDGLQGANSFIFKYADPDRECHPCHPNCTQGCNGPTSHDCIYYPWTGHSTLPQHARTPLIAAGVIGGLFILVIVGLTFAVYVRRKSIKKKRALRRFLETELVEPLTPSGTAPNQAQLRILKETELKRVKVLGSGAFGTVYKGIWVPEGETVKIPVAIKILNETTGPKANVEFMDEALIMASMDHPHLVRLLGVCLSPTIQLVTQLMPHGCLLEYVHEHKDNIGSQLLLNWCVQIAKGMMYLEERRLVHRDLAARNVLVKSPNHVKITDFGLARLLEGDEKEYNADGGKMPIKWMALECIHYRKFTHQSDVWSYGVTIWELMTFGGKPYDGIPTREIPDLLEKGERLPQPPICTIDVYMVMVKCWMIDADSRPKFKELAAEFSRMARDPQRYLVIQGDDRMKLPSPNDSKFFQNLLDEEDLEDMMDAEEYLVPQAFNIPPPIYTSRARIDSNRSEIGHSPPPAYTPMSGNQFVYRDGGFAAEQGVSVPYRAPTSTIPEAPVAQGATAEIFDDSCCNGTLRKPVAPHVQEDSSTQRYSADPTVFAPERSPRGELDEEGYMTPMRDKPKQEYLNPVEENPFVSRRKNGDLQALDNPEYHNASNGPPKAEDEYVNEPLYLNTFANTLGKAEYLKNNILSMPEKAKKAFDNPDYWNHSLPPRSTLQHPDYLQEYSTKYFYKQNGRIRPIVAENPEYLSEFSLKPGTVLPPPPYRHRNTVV
Sequence of B cell lymphocyte kinase (BLK) (P51451 whole entry, species assumed): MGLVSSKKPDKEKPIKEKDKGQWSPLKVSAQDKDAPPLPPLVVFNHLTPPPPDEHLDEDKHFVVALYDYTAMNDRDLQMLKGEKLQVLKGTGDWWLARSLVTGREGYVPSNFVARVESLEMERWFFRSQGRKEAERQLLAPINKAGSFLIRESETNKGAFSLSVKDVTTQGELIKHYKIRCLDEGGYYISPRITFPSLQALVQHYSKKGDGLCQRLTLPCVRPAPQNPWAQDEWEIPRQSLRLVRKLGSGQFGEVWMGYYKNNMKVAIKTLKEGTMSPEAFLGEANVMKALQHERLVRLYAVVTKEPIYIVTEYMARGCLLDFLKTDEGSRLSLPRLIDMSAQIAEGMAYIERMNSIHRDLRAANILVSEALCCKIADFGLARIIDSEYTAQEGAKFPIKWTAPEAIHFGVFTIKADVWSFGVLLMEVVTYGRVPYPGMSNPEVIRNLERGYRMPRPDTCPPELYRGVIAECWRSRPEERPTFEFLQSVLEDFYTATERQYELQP

Molecule: CC(C)(C=C(C#N)C(=O)N1CCC[C@@H](n2nc(-c3ccc(Oc4ccccc4)cc3F)c3c(N)ncnc32)C1)N1CCN(C2COC2)CC1 (mixture of isomers) [rilzabrutinib, (R)-2-[3-[4-amino-3-(2-fluoro-4-phenoxy-phenyl)pyrazolo[3,4-d]pyrimidin-1-yl]piperidine-1-carbonyl]-4-methyl-4-[4-(oxetan-3-yl)piperazin-1-yl]pent-2-enenitrile]
- human B cell activation (human B cell activation): profoundly inhibits
- platelet-loss (consumption) (mouse model of ITP): significant dose dependent reduction
- day by which 25% of participants achieved a platelet response ([1]; 400 mg BID): 10 days
- median time to rescue therapy ([1]; 400 mg BID): never reached the median
- Number of weeks with platelet counts 50 × 10^9/L, LSmean Difference (95% CI) vs placebo [1, 8]: 6.46 (4.923, 7.990) weeks
- Number of weeks with platelet counts between ≥30 × 10^9/L and <50 × 10^9/L and at least doubled from baseline, LSmean Difference (95% CI) vs placebo [1, 8]: 6.31 (4.787, 7.831) weeks
- Number of weeks with platelet counts 50 × 10^9/L, LSmean (SE) [1, 8]: 7 weeks
- Number of weeks with platelet counts between ≥30 × 10^9/L and <50 × 10^9/L and at least doubled from baseline, LSmean (SE) [1, 8]: 7 weeks
- Number of weeks with platelet counts 50 × 10^9/L, LSmean (SE) [1, 9]: 7.18 (0.747) weeks
- Number of weeks with platelet counts between ≥30 × 10^9/L and <50 × 10^9/L and at least doubled from baseline, LSmean (SE) [1, 9]: 6.95 (0.749) weeks
- Durable response, Difference (95% CI) vs placebo ([1]; 400 mg BID, 24-week double-blind period): 23.1 (15.95, 30.31) %
- Time to platelet response, Median (95% CI) ([1]; 400 mg BID): 36 days
- Time to platelet response, Median (95% CI) ([1]; 400 mg BID, listed as Rilzabrutinib): 36 (22, 44) days
- tolerability ([1]; 400 mg BID, adult patients with ITP): generally well tolerated
- reduction in the need for rescue therapy ([1]; 400 mg BID, vs placebo): 52%
- ITP-PAQ physical fatigue score, Change from baseline, LSmean Difference (95% CI) vs placebo ([1]; At Week 13): 8.08 (1.818, 14.337)
- ITP-PAQ physical fatigue score, Change from baseline, LSmean (SE) ([1]; At Week 13, 400 mg BID): 7.95 (2.132)
- Bleeding as assessed by IBLS, Change from baseline, LSmean Difference (95% CI) vs placebo ([1]; At Week 25): −0.087 (−0.1358, −0.0373)
- ITP-PAQ physical fatigue score, Change from baseline, LSmean Difference (95% CI) vs placebo ([1]; At Week 25): 11.95 (5.416, 18.493)
- Bleeding as assessed by IBLS, Change from baseline, LSmean (SE) ([1]; At Week 25, 400 mg BID): −0.040 (0.0169)
- ITP-PAQ physical fatigue score, Change from baseline, LSmean (SE) ([1]; At Week 25, 400 mg BID): 4.69 (2.263)
- Bleeding as assessed by IBLS, Change from baseline, LSmean (SE) ([1]; At Week 25, 400 mg BID, listed as Rilzabrutinib): −0.040 (0.0169) ^
- TEAE diarrhea, participants ([1]; rilzabrutinib arm): 32.3%
- TEAE headache, participants ([1]; rilzabrutinib arm): 18%
- TEAE nausea, participants ([1]; rilzabrutinib arm): 20.3%
- IC50 [2]: 6.3 nM
- antibody (IgG, IgE) mediated activation of immune cells via Fc receptor signaling (Fc receptor signaling): blocks
- tolerability ([3]; Part A): generally well tolerated
- bleeding (IBLS score) ([3]; Part B): no evidence of increased bleeding
- median platelet counts maintained ([3]; Part B, 400 mg BID, throughout main treatment period and LTE): ≥ 5e+10 µL⁻¹
- HRQOL ([3]; Part B, multiple individual and overall HRQOL health domains): Clinically meaningful improvements
- median PVI ([3]; non-responding patients): 3
- median PVI ([3]; responding patients): 2
- IC50 (ERBB4): 11 nM
- effect on platelet aggregation (platelet aggregation): does not alter platelet aggregation
- binding to other TEC family members over time (other TEC family members): decayed rapidly over time
- IC50 [4]: 1 nM
- number of kinases with >90% inhibition (251 kinases): 6
- IC50 [5]: 1.2 nM
- absorption [6]: rapidly absorbed
- half-life [6]: 3 to 4 h
- IC50 [7]: 0.8 nM

Molecule: C=CC(=O)Nc1cccc(Nc2nc(Nc3ccc(OCCOC)cc3)ncc2F)c1 [CC-292]
- tolerability (BTK enzyme): well tolerated

Molecule: COc1cc(Nc2ncc(F)c(Nc3ccc4c(n3)N(COP(=O)(O)O)C(=O)C(C)(C)O4)n2)cc(OC)c1OC [fostamatinib]
- durable response rate (ITP patients; heavily pretreated ITP patients): ~18%
- Response to prior ITP medication (resulted in platelet count ≥50 × 10^9/L), % (adults with ITP): (30) %
- Response to prior ITP medication (resulted in platelet count ≥50 × 10^9/L), n/n (adults with ITP): 7/23

Molecule: Rituximab: Anti-CD20 monoclonal antibody, second line ITP therapy
- durable on-treatment response rates (ITP patients; ITP, second line therapy): 60-80%
- Response to prior ITP medication (resulted in platelet count ≥50 × 10^9/L), % (adults with ITP): (32) %
- Response to prior ITP medication (resulted in platelet count ≥50 × 10^9/L), n/n (adults with ITP): 22/68

— patent US20250108054A1, “METHODS FOR TREATING PERSISTENT OR CHRONIC IMMUNE THROMBOCYTOPENIA IN CHILDREN, ADOLESCENTS AND ADULTS BY ADMINISTERING (R)-2-[3-[4-AMINO-3-(2-FLUORO-4-PHENOXY-PHENYL)PYRAZOLO[3,4-D]PYRIMIDIN-1-YL]PIPERIDINE-1-CARBONYL]-4-METHYL-4-[4-(OXETAN-3-YL)PIPERAZIN-1-YL]PENT-2-ENENITRILE” (Principia Biopharma Inc., priority 2023, published 2025)
